Assay results from patent publication US10765114B2, “4-amino-6-(pyridyl and 2-substitutedphenyl)-picolinates and 6-amino-2-(pyridyl and 2-substitutedphenyl)-pyrimidine-4-carboxylates and their use as herbicides” (Dow AgroSciences LLC, priority 2013, dated 2020).
Read-outs that look alike come from different tables or passages of the source.

Key:
[1] = system: Key Broadleaf Weed and Crop Species; test: Post-Emergent Test II (Table 5); assay type: in vivo; conditions: post-emergence, 336 h; for pest or weed control at 70 g/ha: application rate 70 (kg ai/ha; footnote: g ai/ha); for pest or weed control at 140 g/ha: application rate 140 (kg ai/ha; footnote: g ai/ha)
Outline: (§1)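 Growth stage at treatment: first or second true leaf. Application: compound in acetone/DMSO diluted into an adjuvant-containing aqueous mix, sprayed at 187 L/ha at several rates. Assessment: visual 0-100% injury at 14 days against untreated plants.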

[2] = system: Key Grass and Sedge Weeds as well as Grass Crops; test: Post-Emergent Test II (Table 6); assay type: in vivo; conditions: post-emergence, 336 h, 14 days after application; for pest or weed control at 70 g/ha: 70 g ai/ha; for pest or weed control at 140 g/ha: 140 g ai/ha
Outline: as §1

[3] = Abutilon theophrasti, ABUTH: velvetleaf (Abutilon theophrasti), read-out: Visual Growth Reduction (%) 14 Days After Application ABUTH
[4] = Amaranthus retroflexus, AMARE: redroot pigweed (Amaranthus retroflexus), read-out: Visual Growth Reduction (%) 14 Days After Application AMARE
[5] = Brassica napus, BRSSS: oilseed rape, canola (Brassica napus), read-out: Visual Growth Reduction (%) 14 Days After Application BRSSS
[6] = Chenopodium album, CHEAL: lambsquarters (Chenopodium album), read-out: Visual Growth Reduction (%) 14 Days After Application CHEAL
[7] = Euphorbia heterophylla, EPHHL: wild poinsettia (Euphorbia heterophylla), read-out: Visual Growth Reduction (%) 14 Days After Application EPHHL
[8] = Helianthus annuus, HELAN: sunflower (Helianthus annuus), read-out: Visual Growth Reduction (%) 14 Days After Application HELAN
[9] = Viola tricolor, VIOTR: wild pansy (Viola tricolor), read-out: Visual Growth Reduction (%) 14 Days After Application VIOTR
[10] = CYPSS, read-out: Visual Growth Reduction (%) 14 Days After Application CYPSS
[11] = DIGSA: crabgrass (Digitaria sanguinalis), read-out: Visual Growth Reduction (%) 14 Days After Application DIGSA
[12] = ECHSS, read-out: Visual Growth Reduction (%) 14 Days After Application ECHSS
[13] = ORYSS (crop), read-out: Visual Growth Reduction (%) 14 Days After Application ORYSS
[14] = SETFA: giant foxtail (Setaria faberi), read-out: Visual Growth Reduction (%) 14 Days After Application SETFA
[15] = SORVU: grain sorghum (Sorghum vulgare), read-out: Visual Growth Reduction (%) 14 Days After Application SORVU
[16] = TRZSS (crop), read-out: Visual Growth Reduction (%) 14 Days After Application TRZSS
[17] = ZEAMX: maize, corn (Zea mays), read-out: Visual Growth Reduction (%) 14 Days After Application ZEAMX

`COc1nc(C(F)(F)F)ccc1-c1nc(C(=O)O)c(Cl)c(N)c1F` [Compound 2, 4-amino-5-chloro-3-fluoro-2′-methoxy-6′-(trifluoromethyl)-[2,3′-bipyridine]-6-carboxylic acid] showed a pest or weed control at 70 g/ha [1, 3] of 0 to 29%, a pest or weed control at 140 g/ha [1, 3] of 0 to 29% and a pest or weed control at 70 g/ha [1, 4] of 0 to 29%. For the same molecule, the pest or weed control at 140 g/ha [1, 4] was 0 to 29%, the pest or weed control at 70 g/ha [1, 5] was 30 to 44% and the pest or weed control at 140 g/ha [1, 5] was 45 to 59%. The pest or weed control at 70 g/ha [1, 6] was 0 to 29%, the pest or weed control at 140 g/ha [1, 6] was 0 to 29% and the pest or weed control at 70 g/ha [1, 7] was 0 to 29%. It also gave a pest or weed control at 140 g/ha [1, 7] of 0 to 29%, a pest or weed control at 70 g/ha [1, 8] of 60 to 74% and a pest or weed control at 140 g/ha [1, 8] of 60 to 74%. For the same molecule, the pest or weed control at 70 g/ha [1, 9] was 0 to 29%, the pest or weed control at 140 g/ha [1, 9] was 0 to 29% and the pest or weed control at 70 g/ha [2, 10] was 0 to 29%. It also gave a pest or weed control at 140 g/ha [2, 10] of 0 to 29%, a pest or weed control at 70 g/ha [2, 11] of 0 to 29% and a pest or weed control at 140 g/ha [2, 11] of 0 to 29%. It also gave a pest or weed control at 70 g/ha [2, 12] of 0 to 29%, a pest or weed control at 140 g/ha [2, 12] of 0 to 29% and a pest or weed control at 70 g/ha [2, 13] of 0 to 29%. For the same molecule, the pest or weed control at 140 g/ha [2, 13] was 0 to 29%, the pest or weed control at 70 g/ha [2, 14] was 0 to 29% and the pest or weed control at 140 g/ha [2, 14] was 0 to 29%. For the same molecule, the pest or weed control at 70 g/ha [2, 15] was 0 to 29%, the pest or weed control at 140 g/ha [2, 15] was 0 to 29% and the pest or weed control at 70 g/ha [2, 16] was 0 to 29%. The pest or weed control at 140 g/ha [2, 16] was 0 to 29%, the pest or weed control at 70 g/ha [2, 17] was 0 to 29% and the pest or weed control at 140 g/ha [2, 17] was 0 to 29%. The melting point was 133 to 134 °C.
`COc1c(N)nc(-c2ccc(C(F)(F)F)nc2)nc1C(=O)O` [Compound 5, 6-amino-5-methoxy-2-(6-(trifluoromethyl)pyridin-3-yl)pyrimidine-4-carboxylic acid] gave a pest or weed control at 70 g/ha [1, 3] of 0 to 29%, a pest or weed control at 140 g/ha [1, 3] of 0 to 29% and a pest or weed control at 70 g/ha [1, 4] of 75 to 84%. It also gave a pest or weed control at 140 g/ha [1, 4] of 85 to 94%, a pest or weed control at 70 g/ha [1, 5] of 85 to 94% and a pest or weed control at 140 g/ha [1, 5] of 85 to 94%. It also gave a pest or weed control at 70 g/ha [1, 6] of 0 to 29%, a pest or weed control at 140 g/ha [1, 6] of 45 to 59% and a pest or weed control at 70 g/ha [1, 7] of 85 to 94%. It also gave a pest or weed control at 140 g/ha [1, 7] of 95 to 100%, a pest or weed control at 70 g/ha [1, 8] of 60 to 74% and a pest or weed control at 140 g/ha [1, 8] of 75 to 84%. The pest or weed control at 70 g/ha [1, 9] was 0 to 29%, the pest or weed control at 140 g/ha [1, 9] was 30 to 44% and the pest or weed control at 70 g/ha [2, 10] was 0 to 29%. It also gave a pest or weed control at 140 g/ha [2, 10] of 0 to 29%, a pest or weed control at 70 g/ha [2, 11] of 60 to 74% and a pest or weed control at 140 g/ha [2, 11] of 75 to 84%. For the same molecule, the pest or weed control at 70 g/ha [2, 12] was 85 to 94%, the pest or weed control at 140 g/ha [2, 12] was 85 to 94% and the pest or weed control at 70 g/ha [2, 13] was 0 to 29%. It also gave a pest or weed control at 140 g/ha [2, 13] of 0 to 29%, a pest or weed control at 70 g/ha [2, 14] of 0 to 29% and a pest or weed control at 140 g/ha [2, 14] of 30 to 44%. It also gave a pest or weed control at 70 g/ha [2, 15] of 0 to 29%, a pest or weed control at 140 g/ha [2, 15] of 0 to 29% and a pest or weed control at 70 g/ha [2, 16] of 0 to 29%. For the same molecule, the pest or weed control at 140 g/ha [2, 16] was 30 to 44%, the pest or weed control at 70 g/ha [2, 17] was 0 to 29% and the pest or weed control at 140 g/ha [2, 17] was 0 to 29%. For the same molecule, the melting point was 188 °C.
`COC(=O)c1nc(-c2ccc(Cl)c(Cl)c2Cl)c(F)c(N)c1Cl` [Compound 12] gave a pest or weed control at 70 g/ha [1, 3] of 85 to 94%, a pest or weed control at 140 g/ha [1, 3] of 85 to 94% and a pest or weed control at 70 g/ha [1, 4] of 95 to 100%. For the same molecule, the pest or weed control at 140 g/ha [1, 4] was 95 to 100%, the pest or weed control at 70 g/ha [1, 5] was 75 to 84% and the pest or weed control at 140 g/ha [1, 5] was 75 to 84%. For the same molecule, the pest or weed control at 70 g/ha [1, 6] was 85 to 94%, the pest or weed control at 140 g/ha [1, 6] was 85 to 94% and the pest or weed control at 70 g/ha [1, 7] was 75 to 84%. It also gave a pest or weed control at 140 g/ha [1, 7] of 75 to 84%, a pest or weed control at 70 g/ha [1, 8] of 85 to 94% and a pest or weed control at 140 g/ha [1, 8] of 85 to 94%. The pest or weed control at 70 g/ha [1, 9] was 0 to 29%, the pest or weed control at 140 g/ha [1, 9] was 0 to 29% and the pest or weed control at 70 g/ha [2, 10] was 0 to 29%. For the same molecule, the pest or weed control at 140 g/ha [2, 10] was 45 to 59%, the pest or weed control at 70 g/ha [2, 11] was 30 to 44% and the pest or weed control at 140 g/ha [2, 11] was 45 to 59%. It also gave a pest or weed control at 70 g/ha [2, 12] of 0 to 29%, a pest or weed control at 140 g/ha [2, 12] of 0 to 29% and a pest or weed control at 70 g/ha [2, 13] of 0 to 29%. The pest or weed control at 140 g/ha [2, 13] was 0 to 29%, the pest or weed control at 70 g/ha [2, 14] was 45 to 59% and the pest or weed control at 140 g/ha [2, 14] was 45 to 59%. For the same molecule, the pest or weed control at 70 g/ha [2, 15] was 0 to 29%, the pest or weed control at 140 g/ha [2, 15] was 30 to 44% and the pest or weed control at 70 g/ha [2, 16] was 0 to 29%. For the same molecule, the pest or weed control at 140 g/ha [2, 16] was 0 to 29%, the pest or weed control at 70 g/ha [2, 17] was 75 to 84% and the melting point was 195 to 196 °C.
